Laboratory results taken from patent publication US9145354B2, “Pharmaceutical compounds” (priority 2011, dated 2015).
Read-outs that look alike come from different tables or passages of the source.

Biological target: full length NS3/4a (Hepatitis C virus genotype 1b (isolate BK) (HCV), UniProt P26663)
Experiment: NS3 Protease Assay (Example A), FRET-based
Assay type: biochemical
Procedure: The HCV NS3 protease functions have been extensively studied and are considered as potential targets for antiviral therapy: see for example the many references listed in the introductory section of this application. Therefore, the activity of the compounds of the invention as anti-HCV agents was assessed using a full length HCV NS3 protease.
The protease activity of the full length NS3/4a was measured using a FRET-based assay utilizing a peptide substrate derived from the NS4A/B cleavage site (Anaspec) and labelled at one end with a quencher (QXL520) and at the other with a fluorophore (5-FAMsp). NS3/4a (produced in-house by literature methods) was incubated with test compounds and peptide substrate in 50 mM Tris pH8, 20 mM DTT, 1% CHAPS, 10% glycerol and 5% DMSO. The reaction was followed by monitoring the change in fluorescence on a Molecular Devices Gemini plate reader for 30 minutes at room temperature. Initial rates were calculated from the progress curves using SoftMax Pro (Molecular Devices). IC50 values were then calculated from replicate curves using Prism GraphPad software.

[1] = HCV NS3 protease assay, full length NS3/4a, read-out: Assay A IC50 (μM) average
[2] = read-out: IC50 against the protease activity of the full length NS3/4a
[3] = stated as IC50 less than 30 μM or at least 40% inhibition at a concentration of 100 μM, read-out: IC50 against the protease activity of the full length NS3/4a

Chain of full length NS3/4a (P26663 1027-1657): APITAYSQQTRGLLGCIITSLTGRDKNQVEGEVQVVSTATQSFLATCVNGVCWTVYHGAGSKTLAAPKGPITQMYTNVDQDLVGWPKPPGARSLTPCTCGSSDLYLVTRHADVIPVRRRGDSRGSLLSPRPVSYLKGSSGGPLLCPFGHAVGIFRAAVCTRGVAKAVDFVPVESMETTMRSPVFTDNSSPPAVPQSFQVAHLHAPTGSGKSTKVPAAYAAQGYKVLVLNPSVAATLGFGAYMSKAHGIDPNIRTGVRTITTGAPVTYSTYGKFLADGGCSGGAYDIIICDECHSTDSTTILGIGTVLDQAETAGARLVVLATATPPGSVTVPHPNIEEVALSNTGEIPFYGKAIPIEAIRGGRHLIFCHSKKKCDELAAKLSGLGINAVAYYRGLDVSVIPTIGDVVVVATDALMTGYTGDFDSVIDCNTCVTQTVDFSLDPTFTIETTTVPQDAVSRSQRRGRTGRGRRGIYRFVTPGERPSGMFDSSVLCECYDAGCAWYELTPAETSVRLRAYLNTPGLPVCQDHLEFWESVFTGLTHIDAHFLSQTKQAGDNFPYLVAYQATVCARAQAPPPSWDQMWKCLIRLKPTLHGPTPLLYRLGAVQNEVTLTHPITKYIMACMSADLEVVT

Row | SMILES | IC50 [1] [µM] | IC50 [2] [µM] | further results
1 | CCC(NC1CCCC1C(N)=O)c1ccc(Cl)c(C(=O)c2ccc(N)nc2)c1F (single isomer, unassigned) [Example 126, 2-{[1-{3-[(6-aminopyridin-3-yl)carbonyl]-4-chloro-2-fluorophenyl}propyl]amino} cyclopentane-1-carboxamide] | 0.12 | < 1 | 
2 | CCC(NC1CCCC1C(N)=O)c1ccc(Cl)c(C(=O)c2ccc(N)nc2)c1F (single isomer, unassigned) [Example 127, 2-{[1-{3-[(6-aminopyridin-3-yl)carbonyl]-4-chloro-2-fluorophenyl}propyl]amino} cyclopentane-1-carboxamide] | 1.6 | 1 to 5 | 
3 | CCC(NC1CCCC1C(N)=O)c1ccc(Cl)c(C(=O)c2ccc(N)nc2)c1F (single isomer, unassigned) [Example 161, 2-{[1-{3-[(6-aminopyridin-3-yl)carbonyl]-4-chloro-2-fluorophenyl}propyl]amino} cyclopentane-1-carboxamide] |  |  | inhibition at 10 µM (@ 10 uM): 60%; IC50 [3]: < 30 µM
4 | CCC(NC[C@H](C)C(N)=O)c1ccc(Cl)c(C(=O)c2cccnc2)c1F (stereo in doubt) [Example 175, (2S)-3-{[(1R)-1-{4-chloro-2-fluoro-3-[(pyridin-3-yl)carbonyl]phenyl}-propyl]amino}-2-methylpropanamide] | 1.1 | 1 to 5 | 
5 | CC[C@@H](N)c1ccc(Cl)c(C(=O)c2ccc(O)cc2)c1F (stereo in doubt) [Example 193, [3-(1-Amino-propyl)-6-chloro-2-fluoro-phenyl]-(4-hydroxy-phenyl)-methanone] | 0.31 | < 1 | 
6 | CC[C@@H](N)c1ccc(Cl)c(C(=O)c2ccc(N)nc2)c1F [Example 1, 5-({3-[(1R)-1-aminopropyl]-6-chloro-2-fluorophenyl}carbonyl)-pyridin-2-amine] | 0.089 | < 1 | 
7 | CC[C@@H](N)c1ccc(Cl)c(C(=O)c2cccnc2)c1F [Example 2, (1R)-1-{4-chloro-2-fluoro-3-[(pyridin-3-yl)carbonyl]phenyl}-propan-1-amine] | 1.4 | 1 to 5 | 
8 | CC[C@@H](N)c1ccc(Cl)c(C(=O)c2cnc(N)cn2)c1F [Example 3, 5-({3-[(1R)-1-aminopropyl]-6-chloro-2-fluorophenyl}carbonyl)-pyrazin-2-amine] | 1.3 | 1 to 5 | 
9 | CC[C@@H](N)c1ccc(Cl)c(C(=O)c2ccc(N)cn2)c1F [Example 5, 6-({3-[(1R)-1-aminopropyl]-6-chloro-2-fluorophenyl}carbonyl)-pyridin-3-amine] |  | 1 to 5 | inhibition at 3 µM (@ 3 uM): 55%
10 | CC[C@H](N)c1ccc(Cl)c(C(=O)c2ccccc2)c1F [Example 6, (1S)-1-(3-benzoyl-4-chloro-2-fluorophenyl)propan-1-amine] |  | < 1 | inhibition at 0.3 µM (@ 0.3 uM): 80%
11 | CC[C@@H](N)c1ccc(Cl)c(C(=O)c2cccc(F)c2)c1F [Example 7, (1R)-1-{4-chloro-2-fluoro-3-[(3-fluorophenyl)carbonyl]-phenyl}propan-1-amine] | 0.38 | < 1 | 
12 | CC[C@@H](N)c1ccc(Cl)c(C(=O)c2ccc(F)cc2)c1F [Example 8, (1R)-1-{4-chloro-2-fluoro-3-[(4-fluorophenyl)carbonyl]-phenyl}propan-1-amine] | 0.19 | < 1 | 
13 | CC[C@@H](N)c1ccc(Cl)c(C(=O)c2ccncn2)c1F [Example 10, (1R)-1-{4-chloro-2-fluoro-3-[(pyrimidin-4-yl)carbonyl]phenyl}-propan-1-amine] | 3.5 | 1 to 5 | 
14 | CC[C@@H](N)c1ccc(Cl)c(C(=O)c2cncnc2)c1F [Example 12, (1R)-1-{4-chloro-2-fluoro-3-[(pyrimidin-5-yl)carbonyl]phenyl}-propan-1-amine] |  |  | inhibition at 30 µM: 47%; IC50 [3]: < 30 µM
15 | CC[C@@H](N)c1ccc(Cl)c(C(=O)c2ccc(F)c(F)c2)c1F [Example 13, (1R)-1-{4-chloro-3-[(3,4-difluorophenyl)carbonyl]-2-fluorophenyl}propan-1-amine] | 0.83 | < 1 | 
16 | CC[C@@H](N)c1ccc(Cl)c(C(=O)c2ccccn2)c1F [Example 14, (1R)-1-{4-chloro-2-fluoro-3-[(pyridin-2-yl)carbonyl]phenyl}propan-1-amine] | 2.5 | 1 to 5 | 
17 | CC[C@@H](N)c1ccc(Cl)c(C(=O)c2ccncc2)c1F [Example 15, (1R)-1-{4-chloro-2-fluoro-3-[(pyridin-4-yl)carbonyl]phenyl}propan-1-amine] | 0.84 | < 1 | 
18 | CC[C@@H](N)c1ccc(Cl)c(C(=O)c2ccns2)c1F [Example 16, (1R)-1-{4-chloro-2-fluoro-3-[(1,2-thiazol-5-yl)carbonyl]phenyl}propan-1-amine] | 0.47 | < 1 | 

Row | SMILES | IC50 [1] [µM] | IC50 [2] [µM] | further results
19 | CC[C@@H](N)c1ccc(Cl)c(C(=O)c2cncc(OC)c2)c1F [Example 17, (1R)-1-{4-chloro-2-fluoro-3-[(5-methoxypyridin-3-yl)carbonyl]phenyl}propan-1-amine] |  |  | inhibition at 100 µM (@ 100 uM): 65%
20 | CC[C@@H](N)c1ccc(Cl)c(C(=O)c2cccc(C#N)c2)c1F [Example 18, 3-({3-[(1R)-1-aminopropyl]-6-chloro-2-fluorophenyl}carbonyl)benzonitrile] | 0.62 | < 1 | 
21 | CC[C@@H](N)c1ccc(Cl)c(C(=O)c2ccc(C(=O)O)nc2)c1F [Example 19, 5-({3-[(1R)-1-aminopropyl]-6-chloro-2-fluorophenyl}carbonyl)pyridine-2-carboxylic acid] | 20 |  | IC50 [3]: < 30 µM
22 | CC[C@@H](N)c1ccc(Cl)c(C(=O)c2nccs2)c1F [Example 20, (1R)-1-{4-chloro-2-fluoro-3-[(1,3-thiazol-2-yl)carbonyl]phenyl}propan-1-amine] | 0.82 | < 1 | 
23 | CC[C@@H](N)c1ccc(Cl)c(C(=O)c2cc(C)on2)c1F [Example 21, (1R)-1-{4-chloro-2-fluoro-3-[(5-methyl-1,2-oxazol-3-yl)carbonyl]phenyl}propan-1-amine] | 1 | 1 to 5 | 
24 | CC[C@@H](N)c1ccc(Cl)c(C(=O)c2ccc(C(N)=O)nc2)c1F [Example 22, 5-({3-[(1R)-1-aminopropyl]-6-chloro-2-fluorophenyl}carbonyl)pyridine-2-carboxamide] | 1.8 | 1 to 5 | 
25 | [2H]C([2H])([2H])C([2H])([2H])[C@@H](N)c1ccc(Cl)c(C(=O)c2ccccc2)c1F [Example 23, (1R)-1-(3-benzoyl-4-chloro-2-fluorophenyl)(2,2,3,3,3-D)propan-1-amine] | 0.11 | < 1 | 
26 | [2H]C([2H])([2H])C([2H])([2H])[C@H](N)c1ccc(Cl)c(C(=O)c2ccccc2)c1F [Example 24, (1S)-1-(3-benzoyl-4-chloro-2-fluorophenyl)(2,2,3,3,3-D)propan-1-amine] | 0.075 | < 1 | 
27 | CC[C@@H](N)c1ccc(Cl)c(C(=O)c2ccc[n+]([O-])c2)c1F [Example 25, [3-((R)-1-Amino-propyl)-6-chloro-2-fluoro-phenyl]-(1-oxy-pyridin-3-yl)-methanone] |  |  | inhibition at 30 µM: 59%; IC50 [3]: < 30 µM
28 | CC[C@H](N)c1ccc(Cl)c(C(=O)c2cccnc2)c1F [Example 26, (1S)-1-{4-chloro-2-fluoro-3-[(pyridin-3-yl)carbonyl]phenyl}propan-1-amine] | 0.63 | < 1 | 
29 | N[C@@H](c1ccc(Cl)c(C(=O)c2ccc(F)cc2)c1F)C1CC1 [Example 27, (R)-{4-chloro-2-fluoro-3-[(4-fluorophenyl)carbonyl]phenyl}(cyclopropyl)methanamine] | 0.22 | < 1 | 
30 | N[C@@H](c1ccc(Cl)c(C(=O)c2cccnc2)c1F)C1CC1 [Example 28, (R)-{4-chloro-2-fluoro-3-[(pyridin-3-yl)carbonyl]phenyl}(cyclopropyl)methanamine] | 1.5 | 1 to 5 | 
31 | CC[C@@H](N)c1ccc(Cl)c(C(=O)c2ccc(Cl)nc2)c1F [Example 29, (1R)-1-{4-chloro-3-[(6-chloropyridin-3-yl)carbonyl]-2-fluorophenyl}propan-1-amine] | 0.5 | < 1 | 
32 | CC[C@H](N)c1ccc(Cl)c(C(=O)c2ccc(Cl)nc2)c1F [Example 30, (1S)-1-{4-chloro-3-[(6-chloropyridin-3-yl)carbonyl]-2-fluorophenyl}propan-1-amine] | 0.21 | < 1 | 
33 | CC[C@H](N)c1ccc(Cl)c(C(=O)c2ccc(N)nc2)c1F [Example 31, 5-({3-[(1S)-1-aminopropyl]-6-chloro-2-fluorophenyl}carbonyl)pyridin-2-amine] | 0.18 | < 1 | 
34 | N#Cc1ccc(C(=O)c2c(Cl)ccc([C@H](N)C3CC3)c2F)cc1 [Example 32, 4-({3-[(R)-amino(cyclopropyl)methyl]-6-chloro-2-fluorophenyl}carbonyl)benzonitrile] | 0.058 | < 1 | 
35 | N[C@@H](c1ccc(Cl)c(C(=O)c2ccncc2)c1F)C1CC1 [Example 33, (R)-{4-chloro-2-fluoro-3-[(pyridin-4-yl)carbonyl]phenyl}(cyclopropyl)methanamine] | 0.71 | < 1 | 
